Ends that are not written are not given here.
How the values were obtained:
[1] = test system: humans with acute myocardial infarction; experiment: Infusion at reperfusion in humans with acute myocardial infarction; format: in vivo
Excerpt: Lower panel illustrates individual data. […] Lower panel illustrates individual data.
(§1) This mechanism involves improved ventricular relaxation which is known to be most sensitive to ATP depletion.

HIF-1a = HIF-1a induction in normal hearts; format: in vivo; details: intravenous continuous administration
Excerpt: The induction of this cyto-protective program is beneficial in the face of subsequent ischemic injury in allografts. p38 MAP kinase activation has been associated with the stabilization of praline residues which otherwise target the HIF-1a subunits to ubiquinization. The stabilization allows the subunits to form heterodimers which active a gene program of cytoprotection.

[2] = test system: conscious pigs with biventricular failure; experiment: Chronic conscious pig model of biventricular failure with impaired renal blood flow; format: in vivo; details: short term (2 hours) infusion, 1.5 pmol/kg/min
Excerpt: FIG. 4, comprising FIG. 4A and 4B show impaired renal blood flow but not cardiac output in pigs with biventricular failure.
There is a model of biventricular heart failure in conscious pigs that is associated with reductions in renal blood flow and function. FIG. 3 illustrates the model and the perturbation in renal blood flow. This is an important model of cardio-renal syndrome in which renal and cardiac injury are found together. FIG. 4 illustrates a 50% reduction in renal blood flow without a reduction in cardiac output in conscious pigs with biventricular failure.

conscious dogs = experiment: Recovery after coronary artery occlusion and reperfusion in conscious dogs; format: in vivo; details: 1.5 pmol/kg/min at the time of reperfusion following coronary artery occlusion
Excerpt: CBF and respective regional wall thickening responses to CAO and CAR. The CBF response (top) is characterized by reactive hyperemia followed by gradual return of flow to pre-occlusion levels in both control and GLP-1-treated animals. The different patterns of recovery of regional contractile function between the two groups are illustrated (bottom).
as §1

[3] = test system: patients with Class 3-4 heart failure; experiment: Administration to patients with Class 3-4 heart failure; format: in vivo, humans; details: administered for 5 weeks
[4] = test system: conscious dogs with pacing-induced DCM; experiment: Myocardial glucose uptake during hyperinsulinemic euglycemic clamp in conscious dogs with pacing-induced DCM; format: in vivo; details: basal and insulin-stimulated
Excerpt: This provides glycolytic ATP without further increases in mitochondrial ROS production. […] This provides the rationale for the use of the native peptide in the treatment of post-ischemic allograft injury.

Substance | requirement for inotropic and pressure support ([1]; GLP-1 infusion, population not given) | HIF-1a mRNA (HIF-1a) | expression of HIF-1a inducible genes, heme-oxygenase-1 (HO-1) (HIF-1a) | GFR [2] | renal blood flow [2] | urinary sodium excretion [2] | peri-infarct and global LV function ([1]; 1.5 pmol/kg/min at the time of reperfusion, humans with acute myocardial infarction, versus patients on comparable therapies without GLP-1) | recovery of left ventricular function (conscious dogs) | natriuresis [3] | myocardial glucose uptake [4]
Glucagon-like peptide-1 [GLP-1] | reduces the requirement for inotropic and pressure support | increases in HIF-1a mRNA | increased expression of HIF-1a inducible genes, heme-oxygenase-1 (HO-1) | improvement in GFR | returned renal blood flow to near normal levels | increased urinary sodium excretion |  |  |  | 
GLP-1 (7-36) amide (HAEGTFTSDVSSYLEGQAAKEFIAWLVKGR-NH2) |  |  |  |  |  |  | improved peri-infarct and global LV function | more rapid and complete recovery of left ventricular function | significant natriuresis that required reduction in diuretic doses | increase myocardial glucose uptake independent of an increase in circulating insulin
GLP-1 (9-36) amide (EGTFTSDVSSYLEGQAAKEFIAWLVKGR-NH2) |  |  |  |  |  |  |  |  |  | increase myocardial glucose uptake independent of an increase in circulating insulin

From patent publication US9950038B2, “Methods and compositions for inhibiting delayed graft function” (THE TRUSTEES OF THE UNIVERSIY OF PENNSYLVANIA, priority 2011, dated 2018)
